From patent publication US6355823B1 (Board of Regents, The University of Texas System, priority 1999, dated 2002)
“And” between values parts separate entries of the source, which are not always exact repeats. Equal entries are not always repeated.

What was measured:
[1] = tested on: rats with normal renal function; assay: Effect of 2′-PP on rat survival, serum phosphate and serum calcium (Table 1 study); type: in vivo; details: for Serum calcium / Serum phosphate: seven days after beginning treatment
Protocol: Ten rats with normal renal function were treated with varied amounts of [^3H]2′-PP by gavage for seven days. The 2′-PP was given once/day in a solution containing 270 mM sucrose and 10 mM Tris-Cl pH 7.4. Blood was withdrawn 1, 4, and 7 days from the start of the treatment and analyzed for serum phosphate and serum calcium, with the results shown in Table 1. A second, one-week trial was performed adding 2′-PP to the drinking water. Blood was withdrawn at 1, 4 and 7 days and assayed for calcium and phosphate. Dietary phosphorus was increased from 0.9% to 5% for one week, and the experiment repeated at the elevated dietary phosphorus with 2′-PP added to the drinking water for an additional two weeks. The amount of radioactivity in the urine and stool as examined. After two weeks, the animals were sacrificed, and the kidney and liver were examined for radioactivity.
Serum calcium levels (2.1 mM±0.18 mM) remained unchanged (7% fluctuation compared to 3% error in duplicate determinations) on both the normal and high phosphate diets irrespective of 2′-PP concentration. […] Serum phosphate was 2.5±0.2 mM prior to administration of 2′-PP (n=12). […] Rats on the high phosphate diet required higher 2′-PP concentrations to achieve the same results, however, similar decreases in serum phosphate were seen. […] At 10 μM 2′-PP, rats on the high phosphorus diet had serum phosphate levels below that seen in untreated rats on the normal phosphate diet.
The values given are measured seven days after beginning treatment with the indicated 2′-PP concentration. Results are from duplicate rats and assayed in triplicate.

[2] = target: intestinal brush border membrane alkaline phosphatase (Oryctolagus cuniculus, UniProt G1SXE4); assay: biochemical; type: biochemical
Chain of intestinal brush border membrane alkaline phosphatase (G1SXE4 25-504): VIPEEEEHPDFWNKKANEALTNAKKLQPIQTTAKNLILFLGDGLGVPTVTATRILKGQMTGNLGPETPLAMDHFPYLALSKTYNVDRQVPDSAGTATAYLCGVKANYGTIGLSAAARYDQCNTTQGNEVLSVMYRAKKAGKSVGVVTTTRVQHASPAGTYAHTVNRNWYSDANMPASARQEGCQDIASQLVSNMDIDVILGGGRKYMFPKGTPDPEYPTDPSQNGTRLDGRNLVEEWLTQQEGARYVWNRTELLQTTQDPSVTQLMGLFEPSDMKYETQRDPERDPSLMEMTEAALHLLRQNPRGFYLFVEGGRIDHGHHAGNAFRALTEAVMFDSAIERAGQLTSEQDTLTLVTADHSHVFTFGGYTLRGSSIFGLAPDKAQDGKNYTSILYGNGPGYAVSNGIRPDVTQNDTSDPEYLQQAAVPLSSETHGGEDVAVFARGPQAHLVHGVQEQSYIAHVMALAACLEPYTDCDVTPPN

[3] = High Phosphate Diet, [2′-PP] 1 μM
[4] = High Phosphate Diet, [2′-PP] 2 μM
[5] = High Phosphate Diet, [2′-PP] 5 μM
[6] = High Phosphate Diet, [2′-PP] 10 μM
[7] = High Phosphate Diet, [2′-PP] 25 μM
[8] = Normal Phosphate Diet, [2′-PP] 1 μM
[9] = Normal Phosphate Diet, [2′-PP] 2 μM
[10] = Normal Phosphate Diet, [2′-PP] 5 μM
[11] = Normal Phosphate Diet, [2′-PP] 10 μM
[12] = Normal Phosphate Diet, [2′-PP] 25 μM
[13] = four weeks of treatment with 2′-PP

SMILES: O=C(CCc1ccc(O)cc1)c1c(O)cc(O)cc1OP(=O)(O)O
- Serum calcium [1, 3]: 2.1 ± 0.1 mM
- Serum phosphate [1, 3]: 4.4 ± 0.2 mM
- Serum calcium [1, 4]: 2.1 ± 0.1 mM
- Serum phosphate [1, 4]: 3.3 ± 0.2 mM
- Serum calcium [1, 5]: 2.1 ± 0.1 mM
- Serum phosphate [1, 5]: 2.6 ± 0.1 mM
- Serum calcium [1, 6]: 2.1 ± 0.1 mM
- Serum phosphate [1, 6]: 2.0 ± 0.04 mM
- Serum calcium [1, 7]: 2.0 ± 0.1 mM
- Serum phosphate [1, 7]: 1.8 ± 0.08 mM
- Serum calcium [1, 8]: 2.1 ± 0.08 mM
- Serum phosphate [1, 8]: 2.5 ± 0.1 mM
- Serum calcium [1, 9]: 2.1 ± 0.1 mM
- Serum phosphate [1, 9]: 2.2 mM and 2.2 ± 0.1 mM
- Serum calcium [1, 10]: 2.1 ± 0.05 mM
- Serum phosphate [1, 10]: 2.0 ± 0.07 mM
- Serum calcium [1, 11]: 2.0 ± 0.1 mM
- Serum phosphate [1, 11]: 1.8 ± 0.1 mM
- Serum calcium [1, 12]: 2.1 ± 0.1 mM
- Serum phosphate [1, 12]: 1.4 mM and 1.4 ± 0.1 mM
- change in weight [1, 13]: nor did they suffer any measurable change in weight
- rat survival [1, 13]: none of the rats died
- Serum calcium levels (remained unchanged) ([1]; normal and high phosphate diets, irrespective of 2′-PP concentration): 2.1 mM
- substrate of alkaline / apical membrane phosphatase [2]: substrate of alkaline phosphatase
- type of inhibition of alkaline phosphatase [2]: competitive inhibitor
- inhibition at 50 µM ([2]; read-out: inhibition of alkaline phosphatase): 33%
